We go through 21 compounds from US20240368150A1 (Hoffmann-La Roche Inc., priority 2021, published 2024).

Assay [1] concerns primary human T-cells. As to the kind of experiment: Proliferation assay after 5 days (CellTiter-Glo, CD3 stimulation; PBS counter screen). Format: cell-based. The note with it: Homo sapiens, T-cell, 120 h, CD3 stimulation; for Emax: 5 days, normalized to reference compound A1 as stimulator control = 100%, DMSO neutral control, read-out: Emax proliferation (% activation); for EC50: primary human T-cells, CellTiter-Glo after 5 days, EC50 of fitted sigmoidal curve, read-out: Tcell Proliferation CD3 EC50. An outline of the steps:
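Cpds added to medium-only plates; 5 d culture. Readout CellTiter-Glo 2.0 (equal vol), RT 45 min equilibration, 15 min rocking RT, luminescence. ATP signal taken as cell number.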

Assay [2] deals with primary human T-cells.

Like-named read-outs stand apart in the source and are kept apart here. Some results are limits rather than exact numbers.

In the case of `CC(C)OCc1nnc(-c2cc3c(cc2F)S(=O)(=O)C[C@H](N)C(=O)N3Cc2ccc(Cl)cc2)o1` [Example 89, (3R)-3-amino-5-[(4-chlorophenyl)methyl]-8-fluoro-7-[5-(isopropoxymethyl)-1,3,4-oxadiazol-2-yl]-1,1-dioxo-2,3-dihydro-1λ^6,5-benzothiazepin-4-one], the Emax in the assay with primary human T-cells [1] was 104%. Besides, the EC50 was determined as 615 nM in the assay on primary human T-cells [1] and 117 nM with primary human T-cells [2].

In the case of `CC(C)(C)NC(=O)c1nnc(-c2cc3c(cc2F)S(=O)(=O)C[C@H](N)C(=O)N3Cc2ccc(Cl)cc2)o1` [Example 90, N-tert-butyl-5-[(3R)-3-amino-5-[(4-chlorophenyl)methyl]-8-fluoro-1,1,4-trioxo-2,3-dihydro-1λ^6,5-benzothiazepin-7-yl]-1,3,4-oxadiazole-2-carboxamide], in the assay on primary human T-cells [1], the Emax is 96% and the EC50 worked out at 2340 nM. In the assay on primary human T-cells [2], this compound returned an EC50 of 819 nM.

For the compound `CC1(c2nnc(-c3cc4c(cc3F)S(=O)(=O)C[C@H](N)C(=O)N4Cc3ccc(Cl)cc3)o2)CCOCC1` [Example 92, (3R)-3-amino-5-[(4-chlorophenyl)methyl]-8-fluoro-7-[5-(4-methyltetrahydropyran-4-yl)-1,3,4-oxadiazol-2-yl]-1,1-dioxo-2,3-dihydro-1λ^6,5-benzothiazepin-4-one], in the assay on primary human T-cells [1], the Emax amounted to 141%. In addition, the EC50 with primary human T-cells [1] was found to be 196 nM; with primary human T-cells [2], 145 nM.

Take `N[C@H]1CS(=O)(=O)c2cc(F)c(-c3nnc(C(=O)N4CCCC(F)(F)C4)o3)cc2N(Cc2ccc(Cl)cc2)C1=O` [Example 93, (3R)-3-amino-5-[(4-chlorophenyl)methyl]-7-[5-(3,3-difluoropiperidine-1-carbonyl)-1,3,4-oxadiazol-2-yl]-8-fluoro-1,1-dioxo-2,3-dihydro-1λ^6,5-benzothiazepin-4-one]: the Emax with primary human T-cells [1] came out at 100%. Besides, the EC50 is 1750 nM in the assay with primary human T-cells [1] and 660 nM in the assay on primary human T-cells [2].

In the case of `N[C@H]1CS(=O)(=O)c2cc(F)c(-c3nnc(C4CC5(C4)CC(F)(F)C5)o3)cc2N(Cc2ccc(Cl)cc2)C1=O` [Example 94, (3R)-3-amino-5-[(4-chlorophenyl)methyl]-7-[5-(2,2-difluorospiro[3.3]heptan-6-yl)-1,3,4-oxadiazol-2-yl]-8-fluoro-1,1-dioxo-2,3-dihydro-1λ^6,5-benzothiazepin-4-one], in the assay with primary human T-cells [1], the Emax is 85% and the EC50 amounted to 18.1 nM. Besides, the EC50 with primary human T-cells [2] was determined as 161 nM.

Turning to `CS(=O)(=O)CCc1nnc(-c2cc3c(cc2F)S(=O)(=O)C[C@H](N)C(=O)N3Cc2ccc(Cl)cc2)o1` [Example 95, (3R)-3-amino-5-[(4-chlorophenyl)methyl]-8-fluoro-7-[5-(2-methylsulfonylethyl)-1,3,4-oxadiazol-2-yl]-1,1-dioxo-2,3-dihydro-1λ^6,5-benzothiazepin-4-one], the Emax in the assay on primary human T-cells [1] was 67%. The values for the EC50 with primary human T-cells [1] and in the assay with primary human T-cells [2] were 6160 nM and 5360 nM, respectively.

Consider `N[C@H]1CS(=O)(=O)c2cc(F)c(-c3nnc(C(=O)N4[C@@H]5CCC[C@H]4CC5)o3)cc2N(Cc2ccc(Cl)cc2)C1=O` [Example 96, (3R)-3-amino-5-[(4-chlorophenyl)methyl]-8-fluoro-1,1-dioxo-7-[5-[(1R,5S)-8-azabicyclo[3.2.1]octane-8-carbonyl]-1,3,4-oxadiazol-2-yl]-2,3-dihydro-1λ^6,5-benzothiazepin-4-one], for which, in the assay on primary human T-cells [1], the Emax is 46% and the EC50 was above 2730 nM. Further, the EC50 in the assay with primary human T-cells [2] was 604 nM.

For `N[C@H]1CS(=O)(=O)c2cc(F)c(-c3nnc(-c4ccccc4)o3)cc2N(Cc2ccc(Cl)cc2)C1=O` [Example 97, (3R)-3-amino-5-[(4-chlorophenyl)methyl]-8-fluoro-1,1-dioxo-7-(5-phenyl-1,3,4-oxadiazol-2-yl)-2,3-dihydro-1λ^6,5-benzothiazepin-4-one], in the assay on primary human T-cells [1], the Emax came out at 115% and the EC50 was 520 nM. The compound further displayed an EC50 in the assay with primary human T-cells [2] of 1040 nM.

Consider `Cc1ccccc1-c1nnc(-c2cc3c(cc2F)S(=O)(=O)C[C@H](N)C(=O)N3Cc2ccc(Cl)cc2)o1` [Example 98, (3R)-3-amino-5-[(4-chlorophenyl)methyl]-8-fluoro-7-[5-(o-tolyl)-1,3,4-oxadiazol-2-yl]-1,1-dioxo-2,3-dihydro-1λ^6,5-benzothiazepin-4-one], for which, in the assay on primary human T-cells [1], the Emax turned out to be 112% and the EC50 worked out at 64.6 nM. Also, in the assay with primary human T-cells [2], the EC50 is 71.2 nM.

With `N[C@H]1CS(=O)(=O)c2cc(F)c(-c3nnc(-c4ccc(F)cc4)o3)cc2N(Cc2ccc(Cl)cc2)C1=O` [Example 99, (3R)-3-amino-5-[(4-chlorophenyl)methyl]-8-fluoro-7-[5-(4-fluorophenyl)-1,3,4-oxadiazol-2-yl]-1,1-dioxo-2,3-dihydro-1λ^6,5-benzothiazepin-4-one], in the assay on primary human T-cells [1], the Emax amounted to 112% and the EC50 was found to be 82.2 nM. Further, the EC50 with primary human T-cells [2] turned out to be 105 nM.

In the case of `Cc1cccc(F)c1-c1nnc(-c2cc3c(cc2F)S(=O)(=O)C[C@H](N)C(=O)N3Cc2ccc(Cl)cc2)o1` [Example 100, (3R)-3-amino-5-[(4-chlorophenyl)methyl]-8-fluoro-7-[5-(2-fluoro-6-methyl-phenyl)-1,3,4-oxadiazol-2-yl]-1,1-dioxo-2,3-dihydro-1λ^6,5-benzothiazepin-4-one], in the assay with primary human T-cells [1], the Emax was found to be 89% and the EC50 is 49.6 nM. In the assay with primary human T-cells [2], this compound showed an EC50 of 484 nM.

As to `CC(C)Cc1nnc(-c2cc3c(cc2F)S(=O)(=O)C[C@H](N)C(=O)N3Cc2ccc(Cl)cc2)o1` [Example 101, (3R)-3-amino-5-[(4-chlorophenyl)methyl]-8-fluoro-7-(5-isobutyl-1,3,4-oxadiazol-2-yl)-1,1-dioxo-2,3-dihydro-1λ^6,5-benzothiazepin-4-one], the Emax in the assay with primary human T-cells [1] stood at 121%. Moreover, the EC50 turned out to be 49.1 nM in the assay with primary human T-cells [1] and 72.2 nM with primary human T-cells [2].

As to `CC1(c2nnc(-c3cc4c(cc3F)S(=O)(=O)C[C@H](N)C(=O)N4Cc3ccc(Cl)cc3)o2)CNC1` [Example 102, (3R)-3-amino-5-[(4-chlorophenyl)methyl]-8-fluoro-7-[5-(3-methylazetidin-3-yl)-1,3,4-oxadiazol-2-yl]-1,1-dioxo-2,3-dihydro-1λ^6,5-benzothiazepin-4-one], the Emax with primary human T-cells [1] is 65%. The EC50 in the assay on primary human T-cells [1] is 7690 nM; in the assay on primary human T-cells [2], above 10000 nM.

`CC(C#N)c1nnc(-c2cc3c(cc2F)S(=O)(=O)C[C@H](N)C(=O)N3Cc2ccc(Cl)cc2)o1` (stereo partly drawn) [Example 103, 2-[5-[(3R)-3-amino-5-[(4-chlorophenyl)methyl]-8-fluoro-1,1,4-trioxo-2,3-dihydro-1λ^6,5-benzothiazepin-7-yl]-1,3,4-oxadiazol-2-yl]propanenitrile]: in the assay on primary human T-cells [1], the Emax is 102% and the EC50 was determined as 213 nM. Further, the EC50 with primary human T-cells [2] was found to be 583 nM.

For the compound `CC(C)(C#N)c1nnc(-c2cc3c(cc2F)S(=O)(=O)C[C@H](N)C(=O)N3Cc2ccc(Cl)cc2)o1` [Example 104, 2-methyl-2-[5-[(3R)-3-amino-5-[(4-chlorophenyl)methyl]-8-fluoro-1,1,4-trioxo-2,3-dihydro-1λ^6,5-benzothiazepin-7-yl]-1,3,4-oxadiazol-2-yl]propanenitrile], in the assay on primary human T-cells [1], the Emax was determined as 112% and the EC50 was 150 nM. The compound also gave an EC50 in the assay on primary human T-cells [2] of 277 nM.

On to `N[C@H]1CS(=O)(=O)c2cc(F)c(-c3nnc(C4CNCCC4(F)F)o3)cc2N(Cc2ccc(Cl)cc2)C1=O` (stereo partly drawn) [Example 105, (3R)-3-amino-5-[(4-chlorophenyl)methyl]-7-[5-(4,4-difluoro-3-piperidyl)-1,3,4-oxadiazol-2-yl]-8-fluoro-1,1-dioxo-2,3-dihydro-1λ^6,5-benzothiazepin-4-one], for which, in the assay with primary human T-cells [1], the Emax turned out to be 31% and the EC50 came out at 4160 nM. Besides, the EC50 in the assay on primary human T-cells [2] was 1170 nM.

`Cc1ccc(-c2nnc(-c3cc4c(cc3F)S(=O)(=O)C[C@H](N)C(=O)N4Cc3ccc(Cl)cc3)o2)cc1` [Example 106, (3R)-3-amino-5-[(4-chlorophenyl)methyl]-8-fluoro-1,1-dioxo-7-[5-(p-tolyl)-1,3,4-oxadiazol-2-yl]-2,3-dihydro-1λ^6,5-benzothiazepin-4-one]: in the assay with primary human T-cells [1], the Emax is 111% and the EC50 came to 254 nM. Further, in the assay on primary human T-cells [2], the EC50 was 784 nM.

Regarding `Cc1cccc(-c2nnc(-c3cc4c(cc3F)S(=O)(=O)C[C@H](N)C(=O)N4Cc3ccc(Cl)cc3)o2)c1` [Example 107, (3R)-3-amino-5-[(4-chlorophenyl)methyl]-8-fluoro-7-[5-(m-tolyl)-1,3,4-oxadiazol-2-yl]-1,1-dioxo-2,3-dihydro-1λ^6,5-benzothiazepin-4-one], in the assay on primary human T-cells [1], the Emax was 134% and the EC50 is 955 nM. The EC50 with primary human T-cells [2] came to 188 nM.

As for `N[C@H]1CS(=O)(=O)c2cc(F)c(-c3nnc(-c4ccccc4F)o3)cc2N(Cc2ccc(Cl)cc2)C1=O` [Example 108, (3R)-3-amino-5-[(4-chlorophenyl)methyl]-8-fluoro-7-[5-(2-fluorophenyl)-1,3,4-oxadiazol-2-yl]-1,1-dioxo-2,3-dihydro-1λ^6,5-benzothiazepin-4-one], in the assay on primary human T-cells [1], the Emax was determined as 117% and the EC50 was 1530 nM. Besides, the EC50 in the assay on primary human T-cells [2] was determined as 498 nM.

On to `Cc1nc(-c2nnc(-c3cc4c(cc3F)S(=O)(=O)C[C@H](N)C(=O)N4Cc3ccc(Cl)cc3)o2)no1` [Example 109, (3R)-3-amino-5-[(4-chlorophenyl)methyl]-8-fluoro-7-[5-(5-methyl-1,2,4-oxadiazol-3-yl)-1,3,4-oxadiazol-2-yl]-1,1-dioxo-2,3-dihydro-1λ^6,5-benzothiazepin-4-one], for which, in the assay on primary human T-cells [1], the Emax amounted to 86% and the EC50 was found to be 1740 nM. The compound further yielded an EC50 in the assay with primary human T-cells [2] of 1500 nM.

As to `N[C@H]1CS(=O)(=O)c2cc(F)c(-c3nnc(C4CC5(CCOC5)C4)o3)cc2N(Cc2ccc(Cl)cc2)C1=O` (stereo partly drawn) [Example 110, (3R)-3-amino-5-[(4-chlorophenyl)methyl]-8-fluoro-7-[5-(6-oxaspiro[3.4]octan-2-yl)-1,3,4-oxadiazol-2-yl]-1,1-dioxo-2,3-dihydro-1λ^6,5-benzothiazepin-4-one], the Emax with primary human T-cells [1] was determined as 131%. The EC50 in the assay with primary human T-cells [1] was 125 nM; with primary human T-cells [2], 232 nM.
